Data taken from patent US9586951B2 (FUJIFILM Corporation, priority 2013, dated 2017).

Legend:
[1] = molecular target: T1, ATM (Homo sapiens, UniProt Q13315); assay: ATM inhibition test (phosphorylation of Chk2 generated by ionizing radiation, AlphaScreen SureFire); type: cell-based; details: phosphorylated Chk2 in NCI-H460 cells, ionizing radiation 8Gy, 1 hour after test compound treatment; read-out: ATM inhibitory activity
T1 construct: detecting phosphorylation of Chk2 in a human non-small cell lung cancer cell line NCI-H460 (ATCC company); host or cells: NCI-H460 human non-small cell lung cancer cells
Summary of the method: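 NCI-H460 cells treated with compound for 1 hour, then irradiated with 8Gy and incubated 1 hour at 37° C. Phospho-Chk2 measured by AlphaScreen SureFire. Inhibition ratio calculated relative to untreated irradiated and non-irradiated wells.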

[2] = tested on: human non-small cell lung cancer cell line NCI-H460; assay: Cell proliferation inhibition test by sensitivity-enhancing to ionizing radiation (Cell Titer Glo); type: cell-based; details: concentration in which SER became 2, NCI-H460 cells, ionizing radiation 2 Gy, cultured 120 hour
Summary of the method: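 Radiosensitisation measured as SER, a ratio of Cell Titer Glo luminescence in irradiated vs unirradiated plates relative to DMSO; SER2, the concentration yielding SER 2, came from sigmoidal regression. Compound (0.1% DMSO) was given 24 h post-seeding, 2 Gy applied 30 min later, then 120 hour culture at 37° C.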

T1 sequence (Q13315 whole entry): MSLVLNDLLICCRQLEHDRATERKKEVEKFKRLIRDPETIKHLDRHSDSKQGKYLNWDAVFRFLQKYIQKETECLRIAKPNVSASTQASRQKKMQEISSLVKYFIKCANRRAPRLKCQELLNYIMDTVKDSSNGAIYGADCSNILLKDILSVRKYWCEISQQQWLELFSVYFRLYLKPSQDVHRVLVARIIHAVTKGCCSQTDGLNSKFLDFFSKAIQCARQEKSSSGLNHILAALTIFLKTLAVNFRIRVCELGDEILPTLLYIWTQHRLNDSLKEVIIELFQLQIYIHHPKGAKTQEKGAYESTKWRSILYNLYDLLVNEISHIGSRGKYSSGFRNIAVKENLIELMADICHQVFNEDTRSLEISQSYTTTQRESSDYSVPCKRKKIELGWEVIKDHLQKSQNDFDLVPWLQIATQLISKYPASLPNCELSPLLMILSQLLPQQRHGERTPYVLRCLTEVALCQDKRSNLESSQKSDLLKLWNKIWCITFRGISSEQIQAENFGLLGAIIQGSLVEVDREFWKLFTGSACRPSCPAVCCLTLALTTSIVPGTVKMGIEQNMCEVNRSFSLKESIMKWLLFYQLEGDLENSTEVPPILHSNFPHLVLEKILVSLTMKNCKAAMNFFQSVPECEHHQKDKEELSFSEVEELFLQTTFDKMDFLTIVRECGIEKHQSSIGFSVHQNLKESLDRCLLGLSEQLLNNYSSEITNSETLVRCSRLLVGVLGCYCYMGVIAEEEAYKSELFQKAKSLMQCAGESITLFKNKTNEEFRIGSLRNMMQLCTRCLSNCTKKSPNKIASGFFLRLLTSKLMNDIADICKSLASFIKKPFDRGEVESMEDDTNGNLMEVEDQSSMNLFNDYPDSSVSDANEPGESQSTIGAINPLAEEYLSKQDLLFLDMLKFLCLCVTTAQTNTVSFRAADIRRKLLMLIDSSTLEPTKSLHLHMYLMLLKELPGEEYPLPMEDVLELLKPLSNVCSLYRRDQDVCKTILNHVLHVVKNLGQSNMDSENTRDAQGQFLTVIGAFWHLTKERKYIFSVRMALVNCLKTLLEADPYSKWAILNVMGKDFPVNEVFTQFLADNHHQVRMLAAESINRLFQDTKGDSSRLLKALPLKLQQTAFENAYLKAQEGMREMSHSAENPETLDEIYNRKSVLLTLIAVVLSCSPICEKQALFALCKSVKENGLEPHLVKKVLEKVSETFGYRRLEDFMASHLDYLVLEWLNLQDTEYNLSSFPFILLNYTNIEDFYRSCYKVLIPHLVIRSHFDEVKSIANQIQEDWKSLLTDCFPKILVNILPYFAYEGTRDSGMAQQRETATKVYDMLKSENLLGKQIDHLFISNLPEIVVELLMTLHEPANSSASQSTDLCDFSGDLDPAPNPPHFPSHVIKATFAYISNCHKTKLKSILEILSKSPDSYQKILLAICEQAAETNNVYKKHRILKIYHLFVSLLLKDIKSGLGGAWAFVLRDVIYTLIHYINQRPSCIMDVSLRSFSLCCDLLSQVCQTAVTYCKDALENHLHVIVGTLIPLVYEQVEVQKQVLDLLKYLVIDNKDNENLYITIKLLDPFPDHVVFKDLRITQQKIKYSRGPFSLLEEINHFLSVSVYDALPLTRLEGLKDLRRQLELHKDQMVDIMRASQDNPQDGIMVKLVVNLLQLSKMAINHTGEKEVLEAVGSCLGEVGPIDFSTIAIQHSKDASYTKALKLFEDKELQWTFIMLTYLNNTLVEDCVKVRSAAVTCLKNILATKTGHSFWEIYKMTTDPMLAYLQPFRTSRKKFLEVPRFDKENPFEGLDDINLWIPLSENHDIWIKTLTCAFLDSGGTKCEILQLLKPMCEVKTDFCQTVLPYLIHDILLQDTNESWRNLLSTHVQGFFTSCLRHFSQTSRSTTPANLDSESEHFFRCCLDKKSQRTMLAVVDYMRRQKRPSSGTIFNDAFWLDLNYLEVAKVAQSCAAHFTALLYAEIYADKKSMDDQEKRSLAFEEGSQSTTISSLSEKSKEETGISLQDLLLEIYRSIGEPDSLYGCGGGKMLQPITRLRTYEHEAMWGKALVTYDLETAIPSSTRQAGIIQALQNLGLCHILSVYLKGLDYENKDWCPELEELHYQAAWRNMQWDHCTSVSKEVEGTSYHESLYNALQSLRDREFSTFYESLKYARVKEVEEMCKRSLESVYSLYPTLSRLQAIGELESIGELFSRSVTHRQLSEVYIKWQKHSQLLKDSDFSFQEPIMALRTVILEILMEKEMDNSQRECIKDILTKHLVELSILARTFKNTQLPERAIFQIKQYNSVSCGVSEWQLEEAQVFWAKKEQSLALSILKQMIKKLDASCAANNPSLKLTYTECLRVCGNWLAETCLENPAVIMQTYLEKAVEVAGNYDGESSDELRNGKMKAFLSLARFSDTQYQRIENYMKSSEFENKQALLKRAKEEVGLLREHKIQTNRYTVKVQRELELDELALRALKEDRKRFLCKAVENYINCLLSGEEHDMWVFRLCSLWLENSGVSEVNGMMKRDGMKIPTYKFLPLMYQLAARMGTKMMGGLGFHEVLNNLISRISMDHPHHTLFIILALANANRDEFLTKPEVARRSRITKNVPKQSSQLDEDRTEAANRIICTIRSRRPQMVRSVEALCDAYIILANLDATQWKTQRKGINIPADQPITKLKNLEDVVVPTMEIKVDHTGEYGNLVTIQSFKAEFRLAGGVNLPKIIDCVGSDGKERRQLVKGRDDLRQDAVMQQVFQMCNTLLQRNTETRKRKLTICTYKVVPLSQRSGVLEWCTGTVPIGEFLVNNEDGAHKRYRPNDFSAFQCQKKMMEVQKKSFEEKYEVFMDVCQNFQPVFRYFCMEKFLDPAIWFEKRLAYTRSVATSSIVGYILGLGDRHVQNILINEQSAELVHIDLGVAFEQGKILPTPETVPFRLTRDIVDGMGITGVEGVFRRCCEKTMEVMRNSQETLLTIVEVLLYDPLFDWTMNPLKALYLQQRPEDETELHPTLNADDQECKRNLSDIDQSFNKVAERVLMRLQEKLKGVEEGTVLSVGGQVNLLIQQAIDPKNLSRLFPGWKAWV

Structure (SMILES) | IC50 [1] | SER2 (concentration at which the radiation sensitivity-enhancement ratio reaches 2) ([2]; Homo sapiens, NCI-H460, 120 h) | SER2 (concentration at which the radiation sensitivity-enhancement ratio reaches 2) [2]
Cc1cnc(C(C)Nc2ccc3c(c2)Sc2cccc(-c4cc(N5CCOCC5)cc(=O)[nH]4)c2S3)nc1 (single isomer, unassigned) [Example 1-12-139-1, 6-(7-((1-(5-methylpyrimidin-2-yl)ethyl)amino)thianthren-1-yl)-4-morpholinopyridin-2(1H)-one] | < 0.1 µM | < 100 nM | –
CN1CCCC(Nc2ccc3c(c2)Sc2cccc(-c4cc(N5CCOCC5)cc(=O)[nH]4)c2S3)C1 (stereo not shown) [Example 1-31-2, 6-(7-((1-Methylpiperidin-3-yl)amino)thianthren-1-yl)-4-morpholinopyridin-2(1H)-one] | < 0.1 µM | 100 to 500 nM | –
Cc1cnc(C(C)Nc2ccc3c(c2)Sc2cccc(-c4cc(N5CCOCC5)cc(=O)[nH]4)c2S3)cn1 (single isomer, unassigned) [Example 1-12-137-2, 6-(7-((1-(5-methylpyrazin-2-yl)ethyl)amino)thianthren-1-yl)-4-morpholinopyridin-2(1H)-one] | < 0.1 µM | – | 100 to 500 nM
CCOc1ccnc(CNc2ccc3c(c2)Cc2cccc(-c4cc(N5CCOCC5)cc(=O)[nH]4)c2O3)c1 [Example 2-13-11, 6-(7-(((4-Ethoxypyridin-2-yl)methyl)amino)-9H-xanthen-4-yl)-4-morpholino pyridin-2(1H)-one] | < 0.1 µM | 100 to 500 nM | –
O=c1cc(N2CCOCC2)cc(-c2c(F)ccc3c2Oc2ccc(NCc4cc(C5CC5)ccn4)cc2C3)[nH]1 [Example 2-46-3, 6-(7-(((4-Cyclopropylpyridin-2-yl)methyl)amino)-3-fluoro-9H-xanthen-4-yl)-4-morpholinopyridin-2(1H)-one] | < 0.1 µM | < 100 nM | –
Cc1cccc(C(C)Nc2ccc3c(c2)Sc2cccc(-c4cc(N5CCOCC5)cc(=O)[nH]4)c2O3)n1 (stereo not shown) [Example 4-4-30, 6-(8-((1-(6-Methylpyridin-2-yl)ethyl)amino)phenoxathiin-4-yl)-4-morpholino pyridin-2(1H)-one] | < 0.1 µM | 100 to 500 nM | –
Cc1ccnc(C(CO)Nc2ccc3c(c2)Sc2cccc(-c4cc(N5CCOCC5)cc(=O)[nH]4)c2S3)c1 (single isomer, unassigned) [Example 1-12-138-2, 6-(7-((2-hydroxy-1-(4-methylpyridin-2-yl)ethyl)amino)thianthren-1-yl)-4-morpholinopyridin-2(1H)-one] | < 0.1 µM | < 100 nM | –
Cc1ccnc(C(CO)Nc2ccc3c(c2)Sc2cccc(-c4cc(N5CCOCC5)cc(=O)[nH]4)c2S3)c1 (stereo not shown) [Example 1-12-65, 6-(7-((2-Hydroxy-1-(4-methylpyridin-2-yl)ethyl)amino)thianthren-1-yl)-4-morpholino pyridin-2(1H)-one] | < 0.1 µM | 100 to 500 nM | –
Cc1cccc(C(CCN(C)C)Nc2ccc3c(c2)Sc2cccc(-c4cc(N5CCOCC5)cc(=O)[nH]4)c2S3)n1 (single isomer, unassigned) [Example 1-22-11-2, 6-(7-((3-(dimethylamino)-1-(6-methylpyridin-2-yl)propyl)amino)thianthren-1-yl)-4-morpholinopyridin-2(1H)-one] | < 0.1 µM | – | < 100 nM
CN(C)c1cnc(CNc2ccc3c(c2)Sc2cccc(-c4cc(N5CCOCC5)cc(=O)[nH]4)c2O3)cn1 [Example 4-4-17, 6-(8-(((5-(Dimethylamino)pyrazin-2-yl)methyl)amino)phenoxathiin-4-yl)-4-morpholino pyridin-2(1H)-one] | < 0.1 µM | 100 to 500 nM | –
COC[C@H](CN1C[C@@H](C)O[C@@H](C)C1)Nc1ccc2c(c1)Sc1cccc(-c3cc(N4CCOCC4)cc(=O)[nH]3)c1S2 [Example 1-46-11, 6-(7-(((S)-1-((2S,6R)-2,6- Dimethylmorpholino)-3-methoxypropan-2-yl)amino)thianthren-1-yl)-4-morpholino pyridin-2(1H)-one] | < 0.1 µM | < 100 nM | –
Cc1cccc(CNc2ccc3c(c2)Cc2ccnc(-c4cc(N5CCOCC5)cc(=O)[nH]4)c2O3)n1 [Example 2-41-2, 6-(7-(((6-Methylpyridin-2-yl)methyl)amino)-5H-chromeno[2,3-c]pyridin-1-yl)-4-morpholino pyridin-2 (1H)-one] | < 0.1 µM | 100 to 500 nM | –

Further lines, with some results ahead:

IC50 [1] | Structure (SMILES) | SER2 (concentration at which the radiation sensitivity-enhancement ratio reaches 2) ([2]; Homo sapiens, NCI-H460, 120 h) | SER2 (concentration at which the radiation sensitivity-enhancement ratio reaches 2) [2]
< 0.1 µM | Cc1cccc(C(C)Nc2ccc3c(c2)Cc2cccc(-c4cc(N5CCOCC5)cc(=O)[nH]4)c2O3)n1 (single isomer, unassigned) [Example 2-14-85-2, 6-(7-((1-(6-methylpyridin-2-yl)ethyl)amino)-9H-xanthen-4-yl)-4-morpholinopyridin-2(1H)-one] | < 100 nM | –
< 0.1 µM | CN1CCN(CCNc2ccc3c(c2)Sc2cccc(-c4cc(N5CCOCC5)cc(=O)[nH]4)c2S3)CC1 [Example 1-10-9, 6-(7-((2-(4-Methylpiperazin-1-yl)ethyl)amino)thianthren-1-yl)-4-morpholino pyridin-2(1H)-one] | 100 to 500 nM | –
< 0.1 µM | COc1ccnc(CNc2ccc3c(c2)Sc2cccc(-c4cc(N5CCOCC5)cc(=O)[nH]4)c2S3)c1 [Example 1-12-4] | 100 to 500 nM | –
< 0.1 µM | O=c1cc(N2CCOCC2)cc(-c2cccc3c2Oc2ccc(NCc4ccnc(Br)c4)cc2C3)[nH]1 [Example 2-2-53, 6-(7-(((2-Bromopyridin-4-yl)methyl)amino)-9H-xanthen-4-yl)-4-morpholino pyridin-2 (1H)-one] | 500 to 2000 nM | –
< 0.1 µM | Cc1ccc(C2(Nc3ccc4c(c3)Sc3cccc(-c5cc(N6CCOCC6)cc(=O)[nH]5)c3S4)COC2)nc1 [Example 1-50-4, 6-(7-((3-(5-Methylpyridin-2-yl)oxetan-3-yl)amino)thianthren-1-yl)-4-morpholino pyridin-2(1H)-one] | 100 to 500 nM | –
< 0.1 µM | Cc1cccc(C(CCN(C)C)Nc2ccc3c(c2)Sc2cccc(-c4cc(N5CCOCC5)cc(=O)[nH]4)c2S3)n1 (single isomer, unassigned) [Example 1-22-11-1, 6-(7-((3-(dimethylamino)-1-(6-methylpyridin-2-yl)propyl)amino)thianthren-1-yl)-4-morpholinopyridin-2(1H)-one] | 100 to 500 nM | –
< 0.1 µM | CN(C)c1cnc(CNc2ccc3c(c2)Cc2cccc(-c4cc(N5CCOCC5)cc(=O)[nH]4)c2O3)cn1 [Example 2-2-37] | 500 to 2000 nM | –
< 0.1 µM | Cc1ccc(C(Nc2ccc3c(c2)Sc2cccc(-c4cc(N5CCOCC5)cc(=O)[nH]4)c2S3)C(C)C)nc1 (stereo not shown) [Example 1-12-121, 6-(7-((2-Methyl-1-(5-methylpyridin-2-yl)propyl)amino)thianthren-1-yl)-4-morpholino pyridin-2(1H)-one] | 100 to 500 nM | –
